Measured values published in ChEMBL document CHEMBL1148797, “Structure-activity relationships in the binding of chemically derivatized CD4 to gp120 from human immunodeficiency virus” (J Med Chem, 2007).

Assay: Inhibition of wild type HIV YU2 gp120 to CD4 binding
Design: species or system Human immunodeficiency virus

O=C(O)c1cc(SSc2ccc([N+](=O)[O-])c(C(=O)O)c2)ccc1[N+](=O)[O-]
IC50: 3.58 µM

CCN1C(=O)C=CC1=O [N-ETHYLMALEIMIDE]
IC50: 3.22 µM
